# Earlier results as cited in US20080147019A1, “Antimicrobial component system containing metallic nanoparticles and chitosan and/or its derivatives” (Kimberly-Clark Worldwide, Inc., priority 2006, published 2008).
# Test system: bacteria (gram+ and gram−), as well as fungi (molds and yeasts)
# Conditions: very low doses, as low as about
compound,measurement,value
"[Ag+] [Ionic silver, Ionic silver (Ag+)]",dose at which antimicrobial (oligodynamic),0.001-0.05 ppm
